From patent publication US12157778B2, “Peptides for activation of cell signaling in osteoprogenitor cells” (The Regents of the University of California, priority 2018, dated 2024)

Assays:
[1] = Alendronate-conjugated peptides on bone metabolism in 2-month-old female mice; type: in vivo; details: at the two doses used
Description: FIGS. 15A-15C show two-month-old female mice treated with PBS control; YLL3-Aln or YLL8-Aln at 100 […], subcutaneously, once every two weeks for 2 doses; or YLL3-Aln or YLL8-Aln at 500 m/kg, one IV dose. Mice were euthanized at 28 days (n=4-5/group).
Trabecular bone formation was measured in the distal femoral metaphysis. *, p<0.05 vs PBS. Arrows show double labeled bone surfaces.
Next, the effects of alendronate-conjugated peptides on bone metabolism were evaluated. Two-month-old female mice were treated with PBS control, YLL3-Ale or YLL8-Ale at 100 μg/kg (25 nmol) or 300 μg/kg (75 nmol), subcutaneously, once every other week, or with one IV dose of 500 μg/kg. Two injections were given per mouse. The total cumulative doses were between 200 and 600 μg/kg/month (25-150 nmol), respectively. Alendronate concentration was approximately 1/10-⅕ of the compound. […] In contrast, YLL8-Ale at the 300 μg/kg×2 SC doses or 500 μg/kg×1 IV dose increased trabecular bone volume by more than 20% (p<0.05 vs. PBS) which was associated with increased trabecular thickness (30%, p<0.05 vs. PBS) (FIG. 15A and FIG. 15B) and number (28%, p<0.05 vs. PBS). Both 100 μg/kg and 300 μg/kg doses of YLL8-Ale increased cortical bone volume by approximately 16% and cortical thickness by approximately 15% (FIG. 15C).

[2] = In vivo anabolic effects, 4-month-old mice, 5 μg/kg s.c. 5×/week for 21 days; details: for increase in femoral trabecular bone volume: vs PBS, YLL8 5 μg/kg, hPTH (1-34) 25 μg/kg
Description: FIGS. 10A-10D show the effects of YLL8 on bone formation in vivo. […] All mice received Alizarin red and Calcein at −7 and −2 days before euthanization.
Four-month-old female and male mice were treated with PBS control, YLL3 at 5 μg/kg, YLL8 at 5 μg/kg, or PTH at 25 μg/kg, sc., 5×/week for 28 days (n=4-6/group). Trabecular bone volume was obtained by micro CT scans at the distal femoral metaphysis. Osteocalcin and CTX-1 were measured at the serum.
In another similar study to determine whether YLLs would affect bone metabolism in vivo, YLL3 and YLL8 were injected into 4-month-old female and male mice at 5 μg/kg subcutaneously ([…]). hPTH (1-34) was injected s.c. at 25 μg/kg, 5×/week as a positive control. […] Both YLL8 and hPTH (1-34) increased femoral trabecular bone volume by approximately 130% in the female mice, compared to the PBS-treated mice. In the male mice, YLL8 increase femoral trabecular bone volume by approximately 70%, and hPTH (1-34) increased femoral trabecular bone volume by approximately 30% (FIG. 10A). Mineral apposition rate, a parameter corresponding to osteoblast activity, was increased by more than 70% in the females and about 30% in the males, resulting in an overall increase in surface-based bone formation rate (FIGS. 10A, 10B). The anabolic effect of YLLs was confirmed by increased trabecular bone mass measured at the distal femur metaphysis by micro CT and serum level of osteocalcin (FIG. 11).

Cc1ccccc1NC(=O)Nc1ccc(CC(=O)N[C@@H](CCCNC(N)=O)C(=O)N[C@@H](CCC(=O)O)C(=O)N[C@@H](CO)C(=O)N[C@H](C(=O)NCCOCCOCCNC(=O)CCC(=O)NCCOCCOCCNC(=O)CCC(=O)N[C@@H](CCCCNC(=O)[C@H](N)CSC2CC(=O)N(CC3CCC(C(=O)NCCCC(O)(P(=O)(O)O)P(=O)(O)O)CC3)C2=O)C(N)=O)C(C)C)cc1 (stereo partly shown) [YLL3-Ale]
bone formation or bone mass compared to PBS control [1]: failed to achieve statistically significant differences

Cc1ccccc1NC(=O)Nc1ccc(CC(=O)N[C@@H](CCCCNC(=O)CCc2cccnc2)C(=O)N[C@@H](CCCC(=O)O)C(=O)NC2(C(N)=O)CCCCC2)cc1 [YLL8]
body weights and visible side-effects ([2]; 5 μg/kg s.c., daily injection for 21 days): did not change body weights or cause any visible side-effects

CC[C@H](C)[C@H](NC(=O)[C@H](CCC(=O)O)NC(=O)[C@H](CO)NC(=O)[C@@H](NC(=O)[C@@H](N)CO)C(C)C)C(=O)N[C@@H](CCC(N)=O)C(=O)N[C@@H](CC(C)C)C(=O)N[C@@H](CCSC)C(=O)N[C@@H](Cc1cnc[nH]1)C(=O)N[C@@H](CC(N)=O)C(=O)N[C@@H](CC(C)C)C(=O)NCC(=O)N[C@@H](CCCCN)C(=O)N[C@@H](Cc1cnc[nH]1)C(=O)N[C@@H](CC(C)C)C(=O)N[C@@H](CC(N)=O)C(=O)N[C@@H](CO)C(=O)N[C@@H](CCSC)C(=O)N[C@@H](CCC(=O)O)C(=O)N[C@@H](CCCN=C(N)N)C(=O)N[C@H](C(=O)N[C@@H](CCC(=O)O)C(=O)N[C@@H](Cc1c[nH]c2ccccc12)C(=O)N[C@@H](CC(C)C)C(=O)N[C@@H](CCCN=C(N)N)C(=O)N[C@@H](CCCCN)C(=O)N[C@@H](CCCCN)C(=O)N[C@@H](CC(C)C)C(=O)N[C@@H](CCC(N)=O)C(=O)N[C@@H](CC(=O)O)C(=O)N[C@H](C(=O)N[C@@H](Cc1cnc[nH]1)C(=O)N[C@@H](CC(N)=O)C(=O)N[C@@H](Cc1ccccc1)C(=O)O)C(C)C)C(C)C [hPTH (1-34), Teriparatide]
increase in femoral trabecular bone volume ([2]; female mice): approximately 130% | increase in femoral trabecular bone volume ([2]; male mice): approximately 30%
